# Data as given in patent publication US20250161340A1, “COMPOSITION FOR PREVENTING, ALLEVIATING OR TREATING DRY EYE SYNDROME OR MEIBOMIAN GLAND DYSFUNCTION” (SEOUL NATIONAL UNIVERSITY HOSPITAL, priority 2022, published 2025).
# Columns and labels:
# IL-6 = IL-6 transcripts in eyelids (meibomian glands) by real-time RT PCR, Sjögren's syndrome-related model; assay type: in vivo, mouse; conditions: 12-week-old NOD.B10.H2^b mice; 5 μL of 1,5DQ (50 μg/μL) twice a day for 5 days; vs PBS
# Description: (§1) 12-week-old NOD.B10.H2^b mice were divided into two groups, and (i) 5 μL of 1,5DQ (50 μg/μL) or (ii) 5 μL of PBS was instilled into both eyes of each mouse twice a day for 5 days. The degree of inflammation activation in the eyelids was evaluated by measuring the levels of transcripts of the inflammatory cytokines IL-6 and tumor necrosis factor-α (TNF-α), and another inflammatory factor, matrix metallopeptidase 9 (MMP-9), using real-time RT PCR.
# [1] = tested on: human corneal epithelial cells; assay: Apoptosis of corneal epithelial cells by annexin V/PI flow cytometry, hyperosmotic environment; assay type: cell-based; conditions: hyperosmotic environment (100 mM NaCl), 24 hours
# Description: Corneal epithelial cells primarily cultured from human corneal limbal cells were treated with 100 mM NaCl for exposure to a hyperosmotic environment, and treated with 0, 10, 25, 50, or 100 μg/mL of 1,5DQ for 24 hours, and the degree of apoptosis was measured by performing flow cytometry after annexin V (ANX) and propidium iodide (PI) staining.
# [2] = tested on: tumor necrosis factor-α (TNF-α); assay: TNF-α transcripts in eyelids (meibomian glands) by real-time RT PCR, Sjögren's syndrome-related model; assay type: in vivo, mouse; conditions: 12-week-old NOD.B10.H2^b mice; 5 μL of 1,5DQ (50 μg/μL) twice a day for 5 days; vs PBS
# Description: as §1
# [3] = tested on: CD3-positive immune cells; assay: CD3 immunostaining of lacrimal glands, Sjögren's syndrome-related model; assay type: in vivo, mouse; conditions: 12-week-old NOD.B10.H2^b mice; 5 μL of 1,5DQ (50 μg/μL) twice a day for 5 days; vs PBS
# Description: Sjögren's syndrome-related inflammatory dry eye syndrome mice, i.e., NOD.B10.H2^b mice, typically show increased infiltration of inflammatory cells into the lacrimal glands between 11 to 14 weeks old. 12-week-old NOD.B10.H2^b mice were divided into two groups, and (i) 5 μL of 1,5DQ (50 μg/μL) or (ii) 5 μL of PBS was instilled into both eyes of each mouse twice a day for 5 days, and then the level of inflammatory cell infiltration in the lacrimal glands was evaluated. In addition, the extraorbital and intraorbital lacrimal glands, which had been removed from each mouse and sectioned, were immunostained with CD3, T cells were observed using the stained CD3 under a microscope (FIGS. 4A and 4B) and counted, and then the level of immune cell infiltration in the lacrimal glands was quantified (FIG. 4C).
# SCD3 = SCD3 transcription in eyelids by real-time RT PCR; assay type: in vivo, mouse; conditions: 12-week-old NOD.B10.H2^b mice; 5 μL of 1,5DQ (50 μg/μL) twice a day for 5 days; vs PBS
# Description: (§2) 12-week-old NOD.B10.H2^b mice were divided into two groups, and (i) 5 μL of 1,5DQ (50 μg/μL) or (ii) 5 μL of PBS was instilled into both eyes of each mouse twice a day for 5 days. After removing the lower and upper eyelids of each mouse model, the expression level of meibomian gland differentiation factors in the eyelids was determined using real-time RT PCR. The meibomian glands are composed of sebocytes, and the transcription levels of stearoyl-CoA desaturase (SCD) 1 and SCD3, which are sebocyte-specific genes, were measured.
# [4] = tested on: human corneal epithelial cells; assay: MTT cell viability of corneal epithelial cells, normal or hyperosmotic environment; assay type: cell-based; conditions: 24 hours
# Description: Corneal epithelial cells primarily cultured from human corneal limbal cells were treated with 100 mM NaCl for exposure to a hyperosmotic environment, and treated with 0, 10, 25, 50, or 100 μg/mL of 1,5DQ for 24 hours, and then cell viability was evaluated through MTT assay.
# [5] = tested on: dry eye syndrome mouse models undergoing desiccating stress (BALB/c mice); assay: Desiccating stress dry eye syndrome mouse model: corneal epithelial defects (Lissamine green) and tear secretion (phenol red thread); assay type: in vivo; conditions: 8-week-old BALB/c mice, vs PBS
# Description: Two types of dry eye syndrome mouse models were used to examine whether 1,5DQ instillation is effective for dry eye syndrome. The first mouse model is a desiccating stress model, and BALB/c mice were reared in a dry environment (humidity: 20 to 30%) while administering a drug that suppresses tear secretion (scopolamine hydrobromide 0.5 mg/0.2 mL) intraperitoneally three times a day. The second mouse model is a Sjögren's syndrome-related inflammatory dry eye syndrome mouse model, and NOD.B10.H2^b mice were used. […]
# (§3) In each of the two types of dry eye syndrome mouse models, the dry eye treatment effect of 1,5DQ instillation was investigated. The degree of corneal epithelial defects was measured by instilling a drop of the Lissamine green vital dye on the cornea and then observing the degree of stained corneal epithelial defects under a microscope and clinical scoring the same. The amount of tear secretion was evaluated by placing a thread soaked with a phenol red dye on the outer canthus of the mouse for 1 minute and measuring the length moistened by tears (length of the dyed area).
# 8-week-old BALB/c mice undergoing desiccating stress were divided into two groups, and (i) 5 μL of 1,5DQ (50 μg/μL) or (ii) 5 μL of PBS was instilled into both eyes of each mouse twice a day for 5 days, and then the degree of corneal epithelial defects and the amount of tear secretion were evaluated.
# interleukin 1β (IL-1β) = assay: IL-1β transcripts in lacrimal glands by real-time RT PCR, desiccating stress model; assay type: in vivo, mouse; conditions: BALB/c mice, 5 μL of 1,5DQ (50 μg/μL) twice a day for 5 days, vs PBS
# Description: Desiccating stress-induced 8-week-old BALB/c mice were divided into two groups, and (i) 5 μL of 1,5DQ (50 μg/μL) or (ii) 5 μL of PBS was instilled into both eyes of each mouse twice a day for 5 days. The lacrimal glands of a mouse were classified into an extraorbital lacrimal gland and an intraorbital lacrimal gland, and the degree of inflammatory activation in each lacrimal gland was evaluated by measuring the levels of transcripts of inflammatory cytokine interleukin 1β (IL-1β) using real-time RT PCR.
# meibomian glands = assay: Area of eyelid meibomian glands, Sjögren's syndrome-related model; assay type: in vivo, mouse; conditions: 12-week-old NOD.B10.H2^b mice; 5 μL of 1,5DQ (50 μg/μL) twice a day for 5 days; vs PBS
# Description: 12-week-old NOD.B10.H2^b mice were divided into two groups, and (i) 5 μL of 1,5DQ (50 μg/μL) or (ii) 5 μL of PBS was instilled into both eyes of each mouse twice a day for 5 days. The area of the meibomian glands was confirmed by removing an eyelid from the mouse model and then measuring the area of 3 mm at the center.
# [6] = tested on: Sjögren's syndrome-related inflammatory dry eye syndrome mouse models (NOD.B10.H2^b mice); assay: Sjögren's syndrome-related inflammatory dry eye syndrome mouse model: corneal epithelial defects and tear secretion; assay type: in vivo; conditions: for corneal epithelial defects: vs PBS or 5 μg/μL
# Description: Two types of dry eye syndrome mouse models were used to examine whether 1,5DQ instillation is effective for dry eye syndrome. The first mouse model is a desiccating stress model, and BALB/c mice were reared in a dry environment (humidity: 20 to 30%) while administering a drug that suppresses tear secretion (scopolamine hydrobromide 0.5 mg/0.2 mL) intraperitoneally three times a day. The second mouse model is a Sjögren's syndrome-related inflammatory dry eye syndrome mouse model, and NOD.B10.H2^b mice were used. In the NOD.B10.H2^b mice, under normal environments, inflammation in the lacrimal glands and on the ocular surface spontaneously increases at about 11 weeks, leading to destruction of the lacrimal glands and ocular surface, decreased tear secretion, and severe dry eye syndrome accompanied by ocular surface epithelial defects progresses between 11 and 14 weeks.
# as §3
# As described above, as Sjögren's syndrome-related inflammatory dry eye syndrome mice, NOD.B10.H2^b mice were used. 12-week-old mice were divided into two groups, and (i) 5 μL of 1,5DQ (50 μg/μL) or (ii) 5 μL of PBS was instilled into both eyes of each mouse twice a day for 5 days, and then the degree of corneal epithelial defects and the amount of tear secretion were evaluated.
# Accordingly, the dry eye syndrome treatment effect according to the 1,5DQ treatment concentration was investigated. 12-week-old NOD.B10.H2^b mice (Sjögren's syndrome-related inflammatory dry eye syndrome mouse models) were divided into four groups, and (i) 5 μL of PBS, (ii) 5 μL of 1,5DQ (5 μg/μL), (iii) 5 μL of 1,5DQ (50 μg/μL), or (iv) 5 μL of 1,5DQ (500 μg/μL) was instilled into both eyes twice a day for 5 days, and then the degree of corneal epithelial defects and the amount of tear secretion were evaluated.
# [7] = tested on: matrix metallopeptidase 9 (MMP-9); assay: MMP-9 transcripts in eyelids (meibomian glands) by real-time RT PCR, Sjögren's syndrome-related model; assay type: in vivo, mouse; conditions: 12-week-old NOD.B10.H2^b mice; 5 μL of 1,5DQ (50 μg/μL) twice a day for 5 days; vs PBS
# Description: as §1
# [8] = tested on: stearoyl-CoA desaturase (SCD) 1; assay: SCD1 transcription in eyelids by real-time RT PCR; assay type: in vivo, mouse; conditions: 12-week-old NOD.B10.H2^b mice; 5 μL of 1,5DQ (50 μg/μL) twice a day for 5 days; vs PBS
# Description: as §2
# [9] = 12-week-old NOD.B10.H2^b mice, 5 μL of 1,5DQ (50 μg/μL) instilled twice a day for 5 days, vs PBS (Example 1-2)
substance,measurement,setting,value
"1,5-O-dicaffeoylquinic acid [1,5DQ]",IL-6 expression in the meibomian glands of the eyelids,IL-6,significantly reduced
same,apoptosis level of the corneal epithelial cells,"[1]; 10 μg/mL 1,5DQ",significantly reduced
same,apoptosis level of the corneal epithelial cells,"[1]; 25 μg/mL 1,5DQ",significantly reduced
same,apoptosis level of the corneal epithelial cells,"[1]; 50 μg/mL 1,5DQ",significantly reduced
same,TNF-α expression in the meibomian glands of the eyelids,[2],significantly reduced
same,number of CD3-positive immune cells deposited in the lacrimal glands,[3],significantly decreased
same,expression of SCD3 in the eyelids,SCD3,significantly increased
same,cell viability (MTT),"[4]; hyperosmotic environment (100 mM NaCl), 10 μg/mL 1,5DQ",significantly increased
same,cell viability (MTT),"[4]; hyperosmotic environment (100 mM NaCl), 25 μg/mL 1,5DQ",significantly increased
same,cell viability (MTT),"[4]; hyperosmotic environment (100 mM NaCl), 50 μg/mL 1,5DQ",significantly increased
same,cell viability (MTT),"[4]; hyperosmotic environment (100 mM NaCl), 100 μg/mL 1,5DQ",significantly increased
same,cell viability (MTT),"[4]; normal corneal epithelial cells not treated with NaCl, 25 μg/mL 1,5DQ",significantly increased
same,cell viability (MTT),"[4]; normal corneal epithelial cells not treated with NaCl, 50 μg/mL 1,5DQ",significantly increased
same,degree of corneal epithelial defects,"[5]; 5 μL of 1,5DQ (50 μg/μL) instilled in both eyes twice a day for 5 days",significantly reduced
same,amount of tear secretion,"[5]; 5 μL of 1,5DQ (50 μg/μL) instilled twice a day for 5 days",significantly increased
same,"interleukin 1β expression, extraorbital lacrimal gland",interleukin 1β (IL-1β),significant reduced
same,"interleukin 1β expression, intraorbital lacrimal gland",interleukin 1β (IL-1β),significant reduced
same,area of the meibomian glands in the lower eyelid,meibomian glands,significantly increased
same,amount of tear secretion,[6]; [9],significantly increased
same,degree of corneal epithelial defects,[6]; [9],significantly reduced
same,"amount of tear secretion, dependence on concentration","[6]; Example 4, NOD.B10.H2^b mice, 5, 50 or 500 μg/μL 1,5DQ, 5 μL twice a day for 5 days",increasing trend depending on concentration
same,corneal epithelial defects,"[6]; Example 4, NOD.B10.H2^b mice, 5 μL of 1,5DQ 50 μg/μL twice a day for 5 days",significantly reduced
same,corneal epithelial defects,"[6]; Example 4, NOD.B10.H2^b mice, 5 μL of 1,5DQ 500 μg/μL twice a day for 5 days",significantly reduced
same,"amount of tear secretion, difference between the groups","[6]; Example 4, NOD.B10.H2^b mice, PBS, 5, 50 or 500 μg/μL 1,5DQ, 5 μL twice a day for 5 days",no statistically significant difference
same,MMP-9 expression in the meibomian glands of the eyelids,[7],significantly reduced
same,expression of SCD1 in the eyelids,[8],significantly increased
